From patent publication US20120040974A1, “MIF MODULATORS” (YALE UNIVERSITY, priority 2008, published 2012)
Like-named read-outs stand apart in the source and are kept apart here. Blank lines part the entries; values can stand above or below the compound they belong to.

Columns and labels:
[1] = molecular target: T1, MIF-CD74 binding (biotinylated recombinant human MIF / immobilized CD74 ectodomain) (Homo sapiens, UniProt P14174); experiment: MIF-CD74 binding (capture) assay; conditions: for IC50: Table 1, benzooxazolones B, inhibition of MIF-CD74 binding; for Capture % Max. Inhib.: Table 3, benzothiazolones, capture assay
T1 sequence (P14174 2-115 limits assumed): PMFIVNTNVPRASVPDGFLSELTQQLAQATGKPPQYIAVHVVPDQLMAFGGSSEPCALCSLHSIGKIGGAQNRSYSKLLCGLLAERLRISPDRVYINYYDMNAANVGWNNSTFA

[2] = molecular target: T2, Human MIF tautomerase activity (HPP) (Homo sapiens, UniProt P14174); experiment: HPP tautomerase assay; assay type: biochemical; conditions: for Emax: read-out: HPP Max. Inhib.
T2 construct: made in house
T2 sequence (P14174 2-115 limits assumed): T1 sequence (P14174 2-115 limits assumed)

[3] = system: MIF-dependent ERK1/2 phosphorylation; experiment: MIF-dependent signal transduction in cells (ERK1/2 phosphorylation); assay type: cell-based; conditions: compared to isoxazoline-1
Method: Two additional assays were performed on compounds according to the present invention. In the first, MIF-dependent signal transduction in cells as evidenced by a reduction in ERK1/2 phosphorylation and its inhibitory action is compared to the known small molecule MIF antagonist, isoxazoline-1 following the assay reported in Leng L., Metz C, Fang Y, Xu J, Donnelly S, Baugh J, Delonery T, Chen Y, Mitchell R A, and Bucala R. 2003. MIF Signal Transduction Initiated by Binding to CD74. J Exp Med 197, 1467-1476.

[4] = system: ovarian cancer cell line; experiment: Growth inhibition of an ovarian cancer cell line; assay type: cell-based
Description: KSP inhibitor ARRY-520 is used as a substitute for Paclitaxel in Type I ovarian cancer cells. J Transl Med. 7:63.

[5] = Table 1, MIF tautomerase activity, HPP substrate

SMILES: N#Cc1ccc2c(=O)n(-c3ccc(Cl)cc3)sc2c1 [Compound 37]
Capture % Max. Inhib. [1]: 16%

SMILES: O=c1c2cc(F)ccc2sn1-c1cccc(O)c1 [Compound 32]
Capture % Max. Inhib. [1]: 13%

SMILES: O=c1c2ccc(Br)cc2sn1-c1ccc(Cl)cc1 [Compound 36]
Capture % Max. Inhib. [1]: 10%

SMILES: Ic1cc(-c2ccccc2)ncn1 [Compound 4-IPP, 4-iodo-6-phenylpyrimidine, reference compound]
activity in the capture assay (MIF-CD74 binding), in words [1]: inactive
IC50 [1]: > 10000 µM

SMILES: COC(=O)CC1CC(c2ccc(O)cc2)=NO1 (centres unmarked) [ISO-1, reference compound]
activity in the HPP tautomerase assay, in words [2]: inactive
activity in the capture assay (MIF-CD74 binding), in words [1]: inactive

SMILES: COc1ccccc1-n1sc2ccc(Cl)cc2c1=O [Compound 31]
Capture % Max. Inhib. [1]: 7%

SMILES: N#Cc1nc2ccccc2n1Cc1ccccc1 [Compound 18, 1-Benzyl-1H-benzoimidazole-2-carbonitrile]
Emax ([2]; Table 2, other series): 36%

SMILES: Cc1ccc2oc(=O)n(Cc3cccc(O)c3)c2c1 [Compound 098]
inhibition of MIF-dependent signal transduction (reduction in ERK1/2 phosphorylation), in words [3]: significant inhibitory action
inhibition of growth of an ovarian cancer cell line, in words [4]: significant inhibitory action

SMILES: O=c1c2cc([N+](=O)[O-])ccc2sn1-c1ccc(Cl)cc1 [Compound 34]
Capture % Max. Inhib. [1]: 11%

SMILES: CC(=O)OCc1cccc(-n2sc3cc(F)ccc3c2=O)c1 [Compound 33]
Capture % Max. Inhib. [1]: 12%

The next lines start with the values.

IC50 [1]: 200 µM
SMILES: COc1cccc(Cn2c(=O)oc3ccc(OC)cc32)c1 [Compound 3, 5-methoxy-3-(3-methoxy-benzyl)-3H-benzooxazol-2-one]

Emax ([2]; Table 1, maximal inhibition of HPP tautomerase activity): 17%
SMILES: COc1ccccc1Cn1c(=O)oc2ccc(F)cc21 [Compound 10]

activity in the capture assay (MIF-CD74 binding), in words [1]: agonist behavior
SMILES: O=c1c2ccc(F)cc2sn1-c1ccc(Cl)cc1 [Compound 25]

IC50 ([2]; Table 3, benzothiazolones): 2.8 µM
Capture % Max. Inhib. [1]: 7%
SMILES: O=c1c2cc(F)ccc2sn1-c1ccc(Cl)cc1 [Compound 30]

IC50 ([2]; Table 3, benzothiazolones): 4.8 µM
Capture % Max. Inhib. [1]: 8%
SMILES: O=c1c2ccc(F)cc2sn1-c1cccc(CO)c1 [Compound 29]

IC50 [1]: 300 µM
SMILES: COc1cccc(Cn2c(=O)oc3ccc(C)cc32)c1 [Compound 5]

Emax ([2]; Table 2, other series): 40%
SMILES: c1ccc(Cn2c(-c3cscn3)nc3ccccc32)cc1 [Compound 17, 4-(1-benzyl-1H-benzo[d]imidazol-2-yl)thiazole]

IC50 [1]: > 1000 µM
SMILES: O=c1oc2cc(O)ccc2n1Cc1ccccc1 [Compound 14]

IC50 [1]: 500 µM
SMILES: COc1cccc(Cn2c(=O)oc3ccc(CO)cc32)c1 [Compound 4, 5-hydroxymethyl-3-(3-methoxy-benzyl)-3H-benzooxazol-2-one]

IC50 ([2]; Table 2, other series): 510 µM
SMILES: O=C(c1cc2ccccc2o1)c1cc2ccccc2o1 [Compound 20, bisbenzofuran-2-yl methanone]

IC50 [2, 5]: 0.5 µM
SMILES: Cc1ccc2oc(=O)n(Cc3ccccc3)c2c1 [Compound 1]

IC50 [2, 5]: 1 µM
SMILES: O=c1oc2ccc(F)cc2n1Cc1ccccc1 [Compound 8]

IC50 ([2]; Table 3, benzothiazolones): 8.5 µM
Capture % Max. Inhib. [1]: 12%
SMILES: O=c1c2cc(C(F)(F)F)ccc2sn1-c1ccc(Cl)cc1 [Compound 35]
